Laboratory results from patent US4372948A, “Derivative of saccharide and physiologically active agent containing the same” (Kureha Kagaku Kogyo Kabushiki Kaisha, priority 1980, dated 1983).

Assays:
[1] = in vivo; settings: mouse, in vivo, po, mice, 7 days observation, read-out: LD50, acute oral toxicity
[2] = test system: level of blood sugar; test: Anti-hyperglycemia activity (reduction of blood sugar level); format: in vivo, rat (Wistar, streptozotocin); settings: oral, 300 mg/kg
Protocol: A group of Wistar rats to which at first streptozotocin was interperitoneally administered at a rate of 60 mg/kg and of which the positivity of glycosuria was confirmed after a week of the administration and to which regular insulin was further administered and of which the reduction of levels of glucose in urine and blood was once confirmed, however, of which hyperglycemia and hyperglycosuria were again confirmed after a few days was chosen and used as model animals of glycosuria in the following test. After orally administering each of the present compounds to the model animals at a dose of 300 mg/kg body weight, as a solution or dispersion in distilled water, the blood was collected two times, respectively after 3 and 6 hours of the administration.

[3] = test system: blood pressure; test: Anti-hypertension activity (reduction of blood pressure); format: in vivo, rat (spontaneous hypertension); settings: oral, 300 mg/kg
Protocol: Rats of spontaneous hypertension were orally administered with each of the present compounds as a solution or dispersion in distilled water at a dose rate of 300 mg/kg body weight. After 3 and 6 hours of the administration, the blood pressure of each rat was determined, and the difference between the above-determined value and the value just before the administeration was used as the index of the activity of reducing the blood pressure of the compound.

[4] = test system: Sarcoma-180; test: Anti-tumour activity against Sarcoma-180; format: in vivo, mouse (ICR-JCL); settings: Mus musculus, Sarcoma-180, po, 600 h, 10 times every other day, tumour weight on 25th day, read-out: Antitumour activity, inhibiting rate (I.R.)
Protocol: Sarcoma-180 was transplanted into the axillary part of ICR-JCL mice at a rate of 1×10^6 cells/animal, and after 24 hours of transplantation, each of the present compounds as a solution or dispersion in sterilized physiological saline solution was orally administered to each of the transplanted mice 10 times every other day at a dose of 500 mg/kg/time. On 25th day of the transplantation, tumour node(s) were extirpated from all the mice to determine the weight of the tumour nodes.
Antitumour activity (activity of inhibiting the proliferation of the transplanted sarcoma) of each of the present compounds was derived by the following formula and shown in Table 6:
Antitumour activity (Inhibiting rate, I.R.)=(1-T/C)×100(%).
T represents the total weight of tumour nodes of the group of mice transplanted and administered with the present compound, and
C represents the total weight of tumour nodes of the group of mice transplanted, however, not administered with any agents.

[5] = test system: total cholesterol; test: Anti-hyperlipemia activity, total cholesterol in blood; format: in vivo, rabbit (Japanese white male); settings: oral, 300 mg/kg once; for Reduction of cholesterol level after 3 hrs.: negative = raising
Protocol: (§1) Japanese white male rabbits were fed for 3 months with a solid diet containing 1% of cholesterol taken ad lib, and after confirming the raised lipid content of the serum of the rabbits, they were utilized as model animals suffering from experimental arteriosclerosis. Each of the present compounds was administered orally as a solution or dispersion in distilled water to the experimental animals of each group at a dose rate of 300 mg/kg once, and blood samples were taken at a predetermined time interval from the auricular vein of each animal. The content of cholesterol in the blood specimen was traced as the time passed by, with an enzymatic method, and the content of beta-lipoprotein in the same blood specimen was traced with a colorimetry. Each value in Table 7 is the difference between the level just before administration and the level after 3 or 6 hours of the administration.

[6] = test system: beta-lipoprotein; test: Anti-hyperlipemia activity, beta-lipoprotein in blood; format: in vivo, rabbit (Japanese white male); settings: oral, 300 mg/kg once
Protocol: as §1

[7] = test system: carrageenin edema; test: Anti-Carrageenin edema activity; format: in vivo, rat; settings: Rattus norvegicus, po, 1000 mg/kg once, read-out: I.R. against carrageenin edema
Protocol: After orally administering each of the present compounds forcibly to each group of rats, composed of 10 animals, as a solution or dispersion in distilled water at a dose of 1000 mg/kg once, 0.1 ml of an aqueous dispersion of 1% carrageenin in aqueous physiological saline solution was injected into the foot pad of the right hind leg of the administered animal following Van Arman et al. (1963). Thereafter, the thickness of the foot pad was measured at a time interval to find the rate of inhibiting of the swelling of the foot pad according to the following formula:
(§2) Rate of inhibition (I.R.) (%)=(1-T/C)×100
T means the average volume of the foot pad of the animals administered with one of the present compounds and carrageenin, and
C means that of the animal not administered with the present compound, however, administered with carrageenin.

[8] = test system: cotton pellet granuloma; test: Anti-granuloma activity (cotton pellet); format: in vivo, rat; settings: Rattus norvegicus, po, 192 h, 7 days, read-out: I.R. against cotton pellet edema
Protocol: Following the method of Winter et al. (1963), each two cotton wool pellets, each weighing 30±1 mg, were implanted into the back of each rats of groups of rats, each group consisting of 6 animals, at the positions of mutually symmetrical concerning the median line of the rat. To these groups of the thus operated rats, the present compounds were respectively administered orally and forcibly as a solution or dispersion in distilled water for 7 continuous days, once a day at a dose of 1000 mg/kg/day. On 8th day of the implantation, the granuloma was extirpated and the dry weight of the granuloma was measured, the rate of inhibiting the proliferation of granuloma being obtained as in (5-1) being shown in Table 8.

[9] = test system: exudation; test: Anti-exudation activity (air pouch, croton oil); format: in vivo, rat; settings: 5 days; for inhibition in vivo at 1000 mg/kg/day: Rattus norvegicus, po, 144 h, read-out: I.R. against exudation
Protocol: Following the method of Baris et al. (1965), air was injected subcutaneously into the back of groups of rats, each group consisting of 6 animals to make an air pouch, and 0.5 ml of sesame oil containing 1% by weight of croton oil was injected into the air pouch. Each of the present compounds was orally administered forcibly to each of the groups of rats as a solution or dispersion in distilled water at a dose rate of 1000 mg/kg/day for continued five days. The amount of liquid exudated into the air pouch was measured on 6th day of the operation. The rate of inhibiting the exudation of the liquid was obtained by the same manner as in (5-2) and the results are shown also in Table 8.

[10] = test system: pseudo-escaping reaction to tail pressure; test: Analgetic activity against mechanical stimulation of pressure; format: in vivo, mouse (ICR female); settings: oral, 1000 mg/kg
[11] = test system: acetic acid writhing; test: Analgetic activity against chemical stimulation of acetic acid (writhing); format: in vivo, mouse (ICR female); settings: Mus musculus, po, 30 min before 0.6% acetic acid, read-out: I.R. of writhing
Text: as §2
T represents the average number of writhing of the group of mice administered with the present compound and injected with acetic acid, and C represents the average number of writhing of the group of mice only injected with acetic acid (control).

[12] = test system: pyrexia (Saccharomyces cerevisiae); test: Anti-pyrexia activity (yeast-induced); format: in vivo; settings: Rattus norvegicus, oral, read-out: Rate of inhibiting pyrexia (I.R.)
Protocol: Following the method of Winter et al. (1961), an aqueous dispersion of 20% by weight of Saccharomyces cerevisiae was subcutaneously injected into groups of rats, each group consisting of 6 animals, and after 10-hour fasting, 1000 mg/kg of each of the present compounds was orally administered to the rat as a solution of dispersion in distilled water, and then the rectal temperature of the rat was measured at a predetermined interval of time to find the lowest temperature.
The anti-pyrexia activity of each compound was obtained from the following formula: […]
Anti-pyrexia activity represented by the rate of inhibition (I.R.)
C2 represents the average rectal temperature of negative control (non-treatment), not injected with the yeast and not administered with the present compound,
C1 represents the average temperature of positive control, injected with the yeast and not administered with the compound and T represents the temperature of tested animals, injected with the yeast and administered with the present compound.

SMILES	LD50 at 168 h [1] [mg/kg]	Reduced level of blood sugar after 3 hrs. [2] [mg/dL]	Reduced level of blood sugar after 6 hrs. [2] [mg/dL]	Reduced level of blood pressure after 3 hrs. [3] [mm Hg]	Reduced level of blood pressure after 6 hrs. [3] [mm Hg]	inhibition in vivo at 500 mg/kg [4] [%]	Reduction of cholesterol level after 3 hrs. [5] [mg/dL]	Reduction of cholesterol level after 6 hrs. [5] [mg/dL]	Reduction of beta-lipoprotein level after 3 hrs. [6] [mg/dL]	Reduction of beta-lipoprotein level after 6 hrs. [6] [mg/dL]	inhibition in vivo at 1000 mg/kg [7] [%]	inhibition in vivo at 1000 mg/kg/day [8] [%]	inhibition in vivo at 1000 mg/kg/day [9] [%]	Pseudo-escapting reaction pressure [10] [mmHg]	Pseudo-escapting reaction time [10] [s]	inhibition in vivo at 1000 mg/kg [11] [%]	inhibition in vivo at 1000 mg/kg [12] [%]	further results
NC(=O)c1ccccc1NC1(CO)OC[C@@H](O)[C@@H](O)[C@@H]1O (stereo partly drawn) [Compound 1, o-Aminobenzoic acid amide-N-D-fructoside]	11800	68	92	16	19	42	-2	36	120	131	15.6	6.6	17.5	78	38	17	41	
NC(=O)c1cccc(NC2O[C@H](CO)[C@@H](O[C@@H]3O[C@H](CO)[C@@H](O)[C@H](O)[C@H]3O)[C@H](O)[C@H]2O)c1 (stereo partly drawn) [Compound 2, m-aminobenzoic acid amide-N-cellobioside]	> 15000	85	103	20	22	35	1	30	108	124	20.3	6.1	6.6	84	42	20	36	
NC(=O)c1ccc(NC2OC[C@@H](O)[C@H](O)[C@H]2O)cc1 (stereo partly drawn) [Compound 3, p-aminobenzoic acid amide-N-D-xyloside]	> 15000	101	115	20	24	47	3	45	115	119	26.5	7	19.1	93	44	22	20	
NC(=O)c1ccc(NC2O[C@H](CO)[C@@H](O)[C@H](O)[C@@H]2O)cc1 (stereo partly drawn) [Compound 4, p-aminobenzoic acid amide-N-D-mannoside]	13600	110	116	14	20	42	0	46	123	135	12.1	14.9	5.7	96	45	41	28	
C[C@@H]1OC(Nc2ccc(CC(=O)O)cc2)[C@H](O)[C@H](O)[C@H]1O (stereo partly drawn) [Compound 27, p-aminophenylacetic acid-N-L-rhamnoside]	13800	91	90	20	20	43					5.2	23.1		91	40	35		Reduction of cholesterol level after 3 hrs. ([5]; 300 mg/kg): 1 mg/dL; Reduction of cholesterol level after 6 hrs. ([5]; 300 mg/kg): 30 mg/dL; Reduction of beta-lipoprotein level after 3 hrs. ([6]; 300 mg/kg): 125 mg/dL; Reduction of beta-lipoprotein level after 6 hrs. ([6]; 300 mg/kg): 130 mg/dL; I.R. against exudation ([9]; oral, 1000 mg/kg/day): 16.5%
